Test [1] concerns the target Cyclin-dependent kinase 4 (Homo sapiens, UniProt P11802).
Test [2] concerns the target NADH dehydrogenase [ubiquinone] 1 alpha subcomplex subunit 13 (Homo sapiens, UniProt Q9P0J0).
Test [3] concerns the target T1, Serine/threonine-protein kinase Nek9 (Homo sapiens, UniProt Q8TD19).
T1 sequence (Q8TD19 whole entry): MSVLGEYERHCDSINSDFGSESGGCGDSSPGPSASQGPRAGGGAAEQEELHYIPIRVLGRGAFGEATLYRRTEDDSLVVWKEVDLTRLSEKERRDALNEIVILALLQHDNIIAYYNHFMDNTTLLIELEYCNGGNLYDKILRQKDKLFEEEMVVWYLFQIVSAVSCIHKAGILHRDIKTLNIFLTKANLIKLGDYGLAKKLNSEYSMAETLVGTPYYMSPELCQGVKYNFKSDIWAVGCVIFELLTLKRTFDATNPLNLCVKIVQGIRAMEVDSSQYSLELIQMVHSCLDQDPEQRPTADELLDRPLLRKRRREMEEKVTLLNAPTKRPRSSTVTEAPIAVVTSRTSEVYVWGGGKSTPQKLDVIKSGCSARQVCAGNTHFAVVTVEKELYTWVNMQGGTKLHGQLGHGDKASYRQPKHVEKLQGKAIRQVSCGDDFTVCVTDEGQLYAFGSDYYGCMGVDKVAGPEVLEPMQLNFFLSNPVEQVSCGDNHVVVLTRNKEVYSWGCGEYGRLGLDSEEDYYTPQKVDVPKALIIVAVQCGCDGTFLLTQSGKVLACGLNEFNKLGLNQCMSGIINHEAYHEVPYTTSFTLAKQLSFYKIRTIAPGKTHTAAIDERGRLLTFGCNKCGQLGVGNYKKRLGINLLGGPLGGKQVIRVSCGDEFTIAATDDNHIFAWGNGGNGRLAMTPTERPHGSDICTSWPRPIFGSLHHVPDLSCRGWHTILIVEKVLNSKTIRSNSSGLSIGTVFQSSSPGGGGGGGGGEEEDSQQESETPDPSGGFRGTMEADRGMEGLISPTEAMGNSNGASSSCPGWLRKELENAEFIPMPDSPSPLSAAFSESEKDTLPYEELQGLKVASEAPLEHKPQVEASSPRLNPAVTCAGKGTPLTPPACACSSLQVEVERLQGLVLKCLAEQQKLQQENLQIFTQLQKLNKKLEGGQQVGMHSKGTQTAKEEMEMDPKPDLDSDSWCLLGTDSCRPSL

A further test addresses T2, Pyridoxal kinase (Homo sapiens, UniProt O00764).
T2 sequence (O00764 whole entry): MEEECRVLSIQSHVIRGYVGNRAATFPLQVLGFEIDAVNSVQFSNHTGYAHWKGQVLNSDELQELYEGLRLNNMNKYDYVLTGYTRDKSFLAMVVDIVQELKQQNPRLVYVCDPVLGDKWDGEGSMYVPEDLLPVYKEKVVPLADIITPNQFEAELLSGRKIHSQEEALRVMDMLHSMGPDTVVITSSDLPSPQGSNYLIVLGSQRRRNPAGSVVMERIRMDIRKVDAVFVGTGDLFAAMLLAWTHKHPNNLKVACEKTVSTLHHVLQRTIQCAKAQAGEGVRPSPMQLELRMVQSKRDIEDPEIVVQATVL

Test [4] has as its target T3, Membrane-associated tyrosine- and threonine-specific cdc2-inhibitory kinase (Homo sapiens, UniProt Q99640).
T3 sequence (Q99640 whole entry): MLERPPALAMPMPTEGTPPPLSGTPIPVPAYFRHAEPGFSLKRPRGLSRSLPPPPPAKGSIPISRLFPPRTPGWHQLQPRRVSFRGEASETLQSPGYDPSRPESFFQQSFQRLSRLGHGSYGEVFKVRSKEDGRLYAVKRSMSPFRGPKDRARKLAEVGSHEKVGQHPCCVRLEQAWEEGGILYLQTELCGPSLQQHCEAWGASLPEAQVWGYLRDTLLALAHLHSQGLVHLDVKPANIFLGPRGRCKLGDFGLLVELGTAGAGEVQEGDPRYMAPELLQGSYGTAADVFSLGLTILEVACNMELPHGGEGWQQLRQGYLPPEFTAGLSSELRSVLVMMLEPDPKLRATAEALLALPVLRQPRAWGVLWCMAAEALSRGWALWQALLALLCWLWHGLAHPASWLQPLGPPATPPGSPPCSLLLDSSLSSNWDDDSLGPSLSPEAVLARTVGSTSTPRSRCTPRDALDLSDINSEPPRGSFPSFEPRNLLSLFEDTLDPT

Test [5] has as its target T4, Exosome RNA helicase MTR4 (Homo sapiens, UniProt P42285).
T4 sequence (P42285 whole entry): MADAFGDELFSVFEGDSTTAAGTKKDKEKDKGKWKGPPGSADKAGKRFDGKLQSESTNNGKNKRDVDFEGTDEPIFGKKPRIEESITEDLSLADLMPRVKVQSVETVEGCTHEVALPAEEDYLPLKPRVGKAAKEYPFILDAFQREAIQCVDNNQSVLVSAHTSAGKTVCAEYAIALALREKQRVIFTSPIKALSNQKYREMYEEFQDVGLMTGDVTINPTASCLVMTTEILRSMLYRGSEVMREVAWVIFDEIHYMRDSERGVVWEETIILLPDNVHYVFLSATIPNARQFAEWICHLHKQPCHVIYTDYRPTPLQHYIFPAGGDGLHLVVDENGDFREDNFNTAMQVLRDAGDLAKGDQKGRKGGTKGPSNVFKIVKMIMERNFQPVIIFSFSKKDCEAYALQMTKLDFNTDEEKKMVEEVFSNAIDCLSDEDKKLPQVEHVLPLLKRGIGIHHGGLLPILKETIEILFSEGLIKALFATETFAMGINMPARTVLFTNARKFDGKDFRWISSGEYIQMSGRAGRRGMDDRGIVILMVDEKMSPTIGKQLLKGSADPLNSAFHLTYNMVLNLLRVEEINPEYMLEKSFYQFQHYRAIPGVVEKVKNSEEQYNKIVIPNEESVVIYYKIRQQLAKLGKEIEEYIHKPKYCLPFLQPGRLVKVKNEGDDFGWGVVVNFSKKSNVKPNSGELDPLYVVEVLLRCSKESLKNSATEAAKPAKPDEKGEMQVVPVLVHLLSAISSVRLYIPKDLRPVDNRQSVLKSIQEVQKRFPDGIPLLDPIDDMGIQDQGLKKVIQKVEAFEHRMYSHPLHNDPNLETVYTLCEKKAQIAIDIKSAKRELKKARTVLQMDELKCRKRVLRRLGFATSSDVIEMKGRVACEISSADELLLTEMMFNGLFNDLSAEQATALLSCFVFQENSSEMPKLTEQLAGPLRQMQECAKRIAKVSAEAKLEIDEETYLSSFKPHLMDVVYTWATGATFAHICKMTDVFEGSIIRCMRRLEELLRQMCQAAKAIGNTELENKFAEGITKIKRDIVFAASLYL

In test [6] the target is TRAF2 and NCK-interacting protein kinase (Homo sapiens, UniProt Q9UKE5).
Chain of TRAF2 and NCK-interacting protein kinase (Q9UKE5 whole entry): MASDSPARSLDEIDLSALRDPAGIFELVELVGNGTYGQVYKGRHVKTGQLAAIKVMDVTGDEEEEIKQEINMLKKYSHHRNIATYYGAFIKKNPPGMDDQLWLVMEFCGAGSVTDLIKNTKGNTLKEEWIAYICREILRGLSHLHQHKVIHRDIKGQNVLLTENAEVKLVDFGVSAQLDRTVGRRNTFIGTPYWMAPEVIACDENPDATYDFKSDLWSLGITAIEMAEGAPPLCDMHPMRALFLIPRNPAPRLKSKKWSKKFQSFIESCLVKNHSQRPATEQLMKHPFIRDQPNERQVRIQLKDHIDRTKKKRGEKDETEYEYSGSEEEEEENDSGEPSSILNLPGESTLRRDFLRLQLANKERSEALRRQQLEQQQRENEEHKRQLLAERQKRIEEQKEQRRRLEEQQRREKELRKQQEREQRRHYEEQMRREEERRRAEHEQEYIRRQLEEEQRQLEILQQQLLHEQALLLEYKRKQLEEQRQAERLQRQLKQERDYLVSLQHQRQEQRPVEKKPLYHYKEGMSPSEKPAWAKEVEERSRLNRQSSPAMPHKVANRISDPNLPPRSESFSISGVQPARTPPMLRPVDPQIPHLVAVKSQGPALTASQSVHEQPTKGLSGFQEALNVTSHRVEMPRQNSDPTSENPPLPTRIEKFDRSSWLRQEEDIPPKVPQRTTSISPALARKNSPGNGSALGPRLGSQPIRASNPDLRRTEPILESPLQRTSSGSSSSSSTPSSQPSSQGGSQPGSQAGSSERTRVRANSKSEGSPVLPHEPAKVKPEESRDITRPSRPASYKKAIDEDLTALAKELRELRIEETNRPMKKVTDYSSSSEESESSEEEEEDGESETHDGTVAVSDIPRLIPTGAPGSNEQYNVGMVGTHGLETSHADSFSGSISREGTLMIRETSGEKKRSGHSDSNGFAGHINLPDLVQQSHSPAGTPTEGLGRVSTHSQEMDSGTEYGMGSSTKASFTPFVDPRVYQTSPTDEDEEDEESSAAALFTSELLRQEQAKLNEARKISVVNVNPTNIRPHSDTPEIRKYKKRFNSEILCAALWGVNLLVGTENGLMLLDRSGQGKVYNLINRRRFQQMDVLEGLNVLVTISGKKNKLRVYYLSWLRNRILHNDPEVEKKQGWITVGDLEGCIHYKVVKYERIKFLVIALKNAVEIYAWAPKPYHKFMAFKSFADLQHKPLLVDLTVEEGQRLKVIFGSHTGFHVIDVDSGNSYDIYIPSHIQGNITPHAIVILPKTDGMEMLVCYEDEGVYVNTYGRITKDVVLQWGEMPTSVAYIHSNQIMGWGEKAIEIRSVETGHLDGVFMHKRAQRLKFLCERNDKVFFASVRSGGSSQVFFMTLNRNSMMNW

Activity calls are given as the source filed them.
Further: in the data inactive means no Kd found up to 30 µM.

Chain of Cyclin-dependent kinase 4 (P11802 whole entry): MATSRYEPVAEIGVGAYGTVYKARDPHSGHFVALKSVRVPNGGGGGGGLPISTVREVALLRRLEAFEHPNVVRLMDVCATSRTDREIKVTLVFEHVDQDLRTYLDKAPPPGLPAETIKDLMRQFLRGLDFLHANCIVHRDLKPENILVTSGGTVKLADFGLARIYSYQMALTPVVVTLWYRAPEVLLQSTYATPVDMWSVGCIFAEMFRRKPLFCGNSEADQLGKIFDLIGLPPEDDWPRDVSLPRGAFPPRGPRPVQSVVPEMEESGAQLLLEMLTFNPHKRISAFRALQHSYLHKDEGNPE
Chain of NADH dehydrogenase [ubiquinone] 1 alpha subcomplex subunit 13 (Q9P0J0 whole entry, one chain of several): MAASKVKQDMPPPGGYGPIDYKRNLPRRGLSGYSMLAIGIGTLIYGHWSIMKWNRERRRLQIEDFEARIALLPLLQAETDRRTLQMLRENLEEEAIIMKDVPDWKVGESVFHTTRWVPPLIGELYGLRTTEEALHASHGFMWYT

For `COC(=O)N[C@@H](C)CNc1nccc(-c2cn(C(C)C)nc2-c2cc(Cl)cc(NS(C)(=O)=O)c2F)n1` [ENCORAFENIB], the Kd was 0.112 µM (active) in test [1]; > 30 µM (inactive) in test [2]; > 30 µM (inactive) in test [3]; > 30 µM (inactive) at Pyridoxal kinase; > 30 µM (inactive) in test [4]; > 30 µM (inactive) in test [5]. The Kd in test [6] is > 30 µM (inactive).
With `Cc1cc(-c2cc(O)ccc2Cl)cc2nnc(Nc3ccc(OCCN4CCCC4)cc3)nc12`, the Kd (in test [1]; in test [2]; in test [3]; on Pyridoxal kinase; in test [4]; in test [5]) was > 30 µM (inactive) throughout. Also, in test [6], the Kd was > 30 µM (inactive).
For `O=C1NC(=O)/C(=C/c2ccc3nccc(-c4ccncc4)c3c2)S1` [GSK-1059615], the Kd (in test [1]; in test [2]; in test [3]; at Pyridoxal kinase; in test [4]; in test [5]) was > 30 µM (inactive) each time. Further, in test [6], the Kd was > 30 µM (inactive).
Regarding `CC[C@@H]1C(=O)N(C)c2cnc(Nc3ccc(C(=O)N[C@H]4CC[C@H](N5CCN(CC6CC6)CC5)CC4)cc3OC)nc2N1C(C)C` [VOLASERTIB], the Kd was > 30 µM (inactive) in test [1]; > 30 µM (inactive) in test [2]; > 30 µM (inactive) in test [3]; 0.286 µM (active) on Pyridoxal kinase; > 30 µM (inactive) in test [4]; > 30 µM (inactive) in test [5]. Further, the Kd in test [6] was > 30 µM (inactive).
Take `O=c1sn(-c2cccc3ccccc23)c(=O)n1Cc1ccccc1` [TIDEGLUSIB]: the Kd (in test [1]; in test [2]; in test [3]; on Pyridoxal kinase; in test [4]; in test [5]) was > 30 µM (inactive) throughout. Besides, in test [6], the Kd was > 30 µM (inactive).
For `CO[C@H]1C[C@@H]2CC[C@@H](C)[C@@](O)(O2)C(=O)C(=O)N2CCCC[C@H]2C(=O)O[C@H]([C@H](C)C[C@@H]2CC[C@@H](OCCO)[C@H](OC)C2)CC(=O)[C@H](C)/C=C(\C)[C@@H](O)[C@@H](OC)C(=O)[C@H](C)C[C@H](C)/C=C/C=C/C=C/1C` [EVEROLIMUS], the Kd (in test [1]; in test [2]; in test [3]; at Pyridoxal kinase; in test [4]; in test [5]) was > 30 µM (inactive) each time. Further, the Kd in test [6] was > 30 µM (inactive).
Regarding `CC(C)Nc1cc(-c2c[nH]c(C(=O)N[C@H](CO)c3cccc(Cl)c3)c2)c(Cl)cn1` [ULIXERTINIB], the Kd (in test [1]; in test [2]; in test [3]; at Pyridoxal kinase; in test [4]; in test [5]) was > 30 µM (inactive) each time. For the same molecule, the Kd in test [6] is > 30 µM (inactive).

Source of the values: ChEMBL document CHEMBL3991601, “The target landscape of clinical kinase drugs” (Science, 2017).
